Consider 13 compounds from US10793568B2, “Hormone receptor modulators for treating metabolic conditions and disorders” (ARDELYX, INC., priority 2016, dated 2020).

Read-outs that look alike come from different tables or passages of the source.

Assay [1] deals with ligand binding domain of human FXR (Homo sapiens (Human), UniProt Q96RI1). The assay is described as follows: FXR ligand binding assay (LanthaScreen TR-FRET, SRC2-2 peptide recruitment). As to conditions: for Emax: read-out: % Efficacy. A general note: In TR-FRET formats the signal depends on donor and acceptor labels being close together.
Assay [2] has as its target human Farnesoid X receptor ligand-binding domain/Gal4 DNA binding domain chimera (Homo sapiens (Human), UniProt Q96RI1). The assay is described as follows: Cell-based assay of FXR activation (FXR-UAS-bla HEK 293T beta-lactamase reporter). As to conditions: cellular FXR beta-lactamase reporter assay; for Emax: HEK-293T, read-out: % Efficacy; for Emax / % Efficacy: extent of activation relative to GW4064; for EC50 / pEC50: FXR-UAS-bla HEK 293T cells, 16 h, pEC50 = -log EC50. In short, it runs like this: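 HEK 293T cells stably expressing a Gal4-fused human FXR LBD and a UAS-driven beta-lactamase reporter were incubated with serially diluted compounds for 16 h at 37 °C in phenol red-free DMEM with 2% charcoal-stripped FBS. CCF4 FRET read-out: excitation 409 nm, emission 447 nm. pEC50 comes from a 3-parameter logistic fit, and efficacy is given as % of GW4064.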
Background: A reporter such as luciferase makes a cellular process visible.

[3] abbreviates: -log EC50, concentration required to produce 50% activation.
[4] abbreviates: extent of activation relative to GW4064.

Chain of human Farnesoid X receptor ligand-binding domain/Gal4 DNA binding domain chimera (Q96RI1 262-486, change not shown): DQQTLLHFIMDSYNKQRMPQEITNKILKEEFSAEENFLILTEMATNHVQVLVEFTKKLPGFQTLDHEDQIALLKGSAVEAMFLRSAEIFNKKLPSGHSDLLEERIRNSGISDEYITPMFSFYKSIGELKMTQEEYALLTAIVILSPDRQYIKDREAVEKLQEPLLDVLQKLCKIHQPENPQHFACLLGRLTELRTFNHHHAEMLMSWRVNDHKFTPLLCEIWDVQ
Chain of human Farnesoid X receptor ligand-binding domain/Gal4 DNA binding domain chimera (P04386 1-147 partner): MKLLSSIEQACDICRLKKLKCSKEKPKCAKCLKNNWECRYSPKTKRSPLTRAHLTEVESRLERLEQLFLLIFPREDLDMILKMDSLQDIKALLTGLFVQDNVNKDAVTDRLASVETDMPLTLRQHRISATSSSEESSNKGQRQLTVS
Chain of ligand binding domain of human FXR (Q96RI1 262-486): as the sequence (Q96RI1 262-486, change not shown) above

A word on the pEC50: it is the negative decadic logarithm of the EC50, by convention in mol/L. Turning to `CC(O)CCS(=O)(=O)NC(=O)c1ccc(N2C[C@@H]3C[C@H]2C[C@H]3OCc2c(-c3c(Cl)cccc3Cl)noc2C2CC2)cc1` (stereo partly drawn) [Compound I-217, 4-[(1S,4S,5R)-5-{[5-cyclopropyl-3-(2,6-dichlorophenyl)-1,2-oxazol-4-yl]methoxy}-2-azabicyclo[2.2.1]heptan-2-yl]-N-(3-hydroxybutanesulfonyl)benzamide], the pEC50 in assay [1] (setting [3]) is reported as 9.9. The Emax in assay [1] was 142%. In assay [2], the Emax was 111% and the EC50 is 1 nM.

Regarding `CC(CCS(=O)(=O)NC(=O)c1ccc(N2C[C@@H]3C[C@H]2C[C@H]3OCc2c(-c3c(Cl)cccc3Cl)noc2C2CC2)cc1)OC(=O)CCC(=O)O` (stereo partly drawn) [Compound I-218, 4-({4-[({4-[(1S,4S,5R)-5-{[5-cyclopropyl-3-(2,6-dichlorophenyl)-1,2-oxazol-4-yl]methoxy}-2-azabicyclo[2.2.1]heptan-2-yl]phenyl}formamido)sulfonyl]butan-2-yl}oxy)-4-oxobutanoic Acid], the values for the EC50 in assay [1] (setting [3]) and in assay [2] were 2.51 nM and 5.01 nM, respectively. For the same compound, the Emax in assay [1] (setting [4]) is 146%; in assay [2], 101%.

In assay [1] (setting [3]), `O=C(NS(=O)(=O)CCC(O)CO)c1ccc(N2C[C@@H]3C[C@H]2C[C@H]3OCc2c(-c3c(Cl)cccc3Cl)noc2C2CC2)cc1` (stereo partly drawn) [Compound I-219, 4-[(1S,4S,5R)-5-{[5-cyclopropyl-3-(2,6-dichlorophenyl)-1,2-oxazol-4-yl]methoxy}-2-azabicyclo[2.2.1]heptan-2-yl]-N-(3,4-dihydroxybutanesulfonyl)benzamide] registered a pEC50 of 8.6. Further, the Emax in assay [1] (setting [4]) came to 144%. In assay [2], the Emax amounted to 104% and the EC50 was 39.8 nM.

In the case of `O=C(NS(=O)(=O)[C@H]1CC[C@@H](O)CC1)c1ccc(N2C[C@@H]3C[C@H]2C[C@H]3OCc2c(-c3c(Cl)cccc3Cl)noc2C2CC2)cc1` [Compound I-220, 4-[(1S,4S,5R)-5-{[5-cyclopropyl-3-(2,6-dichlorophenyl)-1,2-oxazol-4-yl]methoxy}-2-azabicyclo[2.2.1]heptan-2-yl]-N-{[(1s,4s)-4-hydroxycyclohexyl]sulfonyl}benzamide], the pEC50 is given as 8.7 in assay [1] (setting [3]) and 9.6 in assay [2]. Moreover, the entries for the “% Efficacy” value in assay [1] (setting [4]) and in assay [2] were 154% and 108%, respectively.

Take `O=C(NS(=O)(=O)[C@H]1CC[C@H](O)CC1)c1ccc(N2C[C@@H]3C[C@H]2C[C@H]3OCc2c(-c3c(Cl)cccc3Cl)noc2C2CC2)cc1` [Compound I-221, 4-[(1S,4S,5R)-5-{[5-cyclopropyl-3-(2,6-dichlorophenyl)-1,2-oxazol-4-yl]methoxy}-2-azabicyclo[2.2.1]heptan-2-yl]-N-{[(1r,4r)-4-hydroxycyclohexyl]sulfonyl}benzamide]: the values for the pEC50 in assay [1] (setting [3]) and in assay [2] were 8.8 and 9.5, respectively. The entries for the “% Efficacy” value in assay [1] (setting [4]) and in assay [2] were 147% and 108%, respectively.

In assay [1] (setting [3]), `O=C(NS(=O)(=O)CCCCCCCCCCNC(=O)[C@H](O)[C@@H](O)[C@H](O)[C@H](O)CO)c1ccc(N2C[C@@H]3C[C@H]2C[C@H]3OCc2c(-c3c(Cl)cccc3Cl)noc2C2CC2)c(F)c1` [Compound I-223, (2R,3S,4R,5R)—N-{10-[({4-[(1S,4S,5R)-5-{[5-cyclopropyl-3-(2,6-dichlorophenyl)-1,2-oxazol-4-yl]methoxy}-2-azabicyclo[2.2.1]heptan-2-yl]-3-fluorophenyl}formamido)sulfonyl]decyl}-2,3,4,5,6-pentahydroxyhexanamide] came in with a pEC50 of 8.6. For the same compound, the Emax in assay [1] (setting [4]) turned out to be 144%. The same compound showed an EC50 in assay [2] of under 31.6 nM.

In the case of `CC(=O)NCCCCCCCCCCS(=O)(=O)NC(=O)c1ccc(N2C[C@@H]3C[C@H]2C[C@H]3OCc2c(-c3c(Cl)cccc3Cl)noc2C2CC2)c(F)c1` [Compound I-224, N-{10-[({4-[(1S,4S,5R)-5-{[5-cyclopropyl-3-(2,6-dichlorophenyl)-1,2-oxazol-4-yl]methoxy}-2-azabicyclo[2.2.1]heptan-2-yl]-3-fluorophenyl}formamido)sulfonyl]decyl}acetamide], in assay [1] (setting [3]), the pEC50 is 8.1. Also, the Emax in assay [1] (setting [4]) amounted to 155%; in assay [2], 104%. Besides, the EC50 in assay [2] was 2.51 nM.

In assay [1] (setting [3]), `COCC(=O)NCCCCCCCCCCS(=O)(=O)NC(=O)c1ccc(N2C[C@@H]3C[C@H]2C[C@H]3OCc2c(-c3c(Cl)cccc3Cl)noc2C2CC2)c(F)c1` [Compound I-225, N-{10-[({4-[(1S,4S,5R)-5-{[5-cyclopropyl-3-(2,6-dichlorophenyl)-1,2-oxazol-4-yl]methoxy}-2-azabicyclo[2.2.1]heptan-2-yl]-3-fluorophenyl}formamido)sulfonyl]decyl}-2-methoxyacetamide] registered a pEC50 of 9.5. In assay [1] (setting [4]), the Emax worked out at 166%. In addition, in assay [2], the Emax came out at 103% and the EC50 is 2 nM.

As for `CC[N+](C)(CC)CCCCCCCCCCS(=O)(=O)NC(=O)c1ccc(N2C[C@@H]3C[C@H]2C[C@H]3OCc2c(-c3c(Cl)cccc3Cl)noc2C2CC2)c(F)c1` [Compound I-226], in assay [1] (setting [4]), the Emax was 148%. In assay [2], the Emax is 152% and the pEC50 was 6.6.

`O=C(NS(=O)(=O)CCCCCCCCCCN1CCC1)c1ccc(N2C[C@@H]3C[C@H]2C[C@H]3OCc2c(-c3c(Cl)cccc3Cl)noc2C2CC2)c(F)c1` [Compound I-227, N-[10-(azetidin-1-yl)decanesulfonyl]-4-[(1S,4S,5R)-5-{[5-cyclopropyl-3-(2,6-dichlorophenyl)-1,2-oxazol-4-yl]methoxy}-2-azabicyclo[2.2.1]heptan-2-yl]-3-fluorobenzamide] gave a pEC50 in assay [1] (setting [3]) of 8.1. Further, the Emax in assay [1] (setting [4]) came to 163%. In addition, in assay [2], the Emax turned out to be 97% and the EC50 is 1 nM.

Consider `O=C(NS(=O)(=O)C1CC1)c1ccc(N2C[C@@H]3C[C@H]2C[C@H]3OCc2c(C3CCC4(CC3)CC4)noc2C2CC2)cc1` [Compound I-228, 4-((1S,4S,5R)-5-((5-cyclopropyl-3-(spiro[2.5]octan-6-yl)isoxazol-4-yl)methoxy)-2-azabicyclo[2.2.1]heptan-2-yl)-N-(cyclopropylsulfonyl)benzamide], for which, in assay [1] (setting [3]), the pEC50 was determined as 7. The Emax in assay [1] (setting [4]) came out at 134%. In addition, in assay [2], the Emax was 105% and the EC50 is 20 nM.

Regarding `O=C(NS(=O)(=O)C1CC1)c1ccc(N2C[C@@H]3C[C@H]2C[C@H]3OCc2c(C3CCC4(CC3)CC4)noc2C2CC2)c(F)c1` [Compound I-229, 4-((1S,4S,5R)-5-((5-cyclopropyl-3-(spiro[2.5]octan-6-yl)isoxazol-4-yl)methoxy)-2-azabicyclo[2.2.1]heptan-2-yl)-N-(cyclopropylsulfonyl)-3-fluorobenzamide], the pEC50 in assay [1] (setting [3]) is listed as 7.4. Further, the Emax in assay [1] (setting [4]) amounted to 150%; in assay [2], 101%. Also, the EC50 in assay [2] is 39.8 nM.

Consider `O=C(NS(=O)(=O)C1CCOCC1)c1ccc(N2C[C@@H]3C[C@H]2C[C@H]3OCc2c(C3CCC4(CC3)CC4)noc2C2CC2)c(F)c1` [Compound I-230, 4-((1S,4S,5R)-5-((5-cyclopropyl-3-(spiro[2.5]octan-6-yl)isoxazol-4-yl)methoxy)-2-azabicyclo[2.2.1]heptan-2-yl)-3-fluoro-N-((tetrahydro-2H-pyran-4-yl)sulfonyl)benzamide], for which the pEC50 in assay [1] (setting [3]) stood at 8. For the same compound, the Emax in assay [1] (setting [4]) turned out to be 150%. Moreover, in assay [2], the Emax was found to be 104% and the EC50 is 6.31 nM.
